Reference: ChEMBL document CHEMBL3507680, “University of Dundee, Gates Library screen for HepG2 cell viability”

Assay: Human HepG2 cell viability assay in 384 well format
Assay type: toxicity, cell-based
Design: dose 125 nL, time 70.5 hour; cytotoxicity at 70.5 h: concentration not given beside the values
Conditions: HepG2 cells, read-out: Inhibition

| SMILES | cytotoxicity at 70.5 h |
| --- | --- |
| CCN1CCN(Cc2coc(-c3cccc(F)c3)n2)CC1 | 20.2% |
| COCCS(=O)(=O)Nc1ccc(-n2cncn2)c(F)c1 | -8.99% |
| Cc1ccc(-c2noc(CN3CCc4cncnc4C3)n2)cc1 | 11.6% |
| CCCc1noc(CN2CCCCC2Cn2cncn2)n1 (configuration not stated) | -7.74% |
| COc1ccc(COCC(=O)N2CCN(CC(C)(C)O)CC2)cc1 | -0.338% |
| COc1cccc(COCC(=O)N2CCCN(CC(N)=O)CC2)c1 | -9.55% |
| CCN1CCN(C(=O)COCc2cccc(OC)c2)CC1 | -6.27% |
| Cc1ccc(CNC(=O)Cn2nc(-c3ccc(F)cc3)oc2=O)cc1F | -7.42% |
| O=C(Cn1nc(-c2ccc(F)cc2)oc1=O)NCc1ccccc1F | -5.95% |
| COc1cccc(COCC(=O)N2CCN(S(C)(=O)=O)CC2)c1 | -4.61% |
| Cc1ccsc1C(=O)NCc1ccnc(OCC(F)(F)F)c1 | -5.25% |
| Cc1ccoc1C(=O)NCc1ccnc(OCC(F)(F)F)c1 | -3.36% |
| Cc1cc(C(=O)NCc2ccnc(OCC(F)(F)F)c2)no1 | -9.23% |
| Cc1ccc(C(=O)N2CCC(Oc3ccccc3)CC2)c(=O)[nH]1 | 10.3% |
| CC(O)CN1CCN(Cc2csc(-c3cnn(C)c3)n2)CC1 (configuration not stated) | -9.86% |
| CC(C)c1nnc2n1CCN(CC(=O)N1CCc3sccc3C1)C2 | -6.79% |
| Cc1ccc(O)c(CNCC2CCCN2c2cccnn2)n1 (configuration not stated) | -11.5% |
| Cc1cc(CN2CCN(C(=O)NC(C)Cn3ccnc3)CC2)on1 (configuration not stated) | 29.6% |
| N#Cc1cccnc1N1CCC(C2CCCCCN2C(=O)C2CC2)CC1 (configuration not stated) | 5.51% |
| CC(C)c1noc(CCCC(=O)NC(C)c2ccccn2)n1 (configuration not stated) | -9.67% |
| COc1cc(C(=O)Nc2cn[nH]c2)ccc1C | -7% |
| O=C(Nc1cn[nH]c1)c1ccncc1 | 4.52% |
| CC(=O)N1CCN(C(=O)CCn2c(C)nc3ccccc3c2=O)CC1 | -7.85% |
| CN(Cc1ccncc1)C(=O)NC1CCCN(c2ncccn2)C1 (configuration not stated) | -1.22% |

| SMILES | cytotoxicity at 70.5 h |
| --- | --- |
| CCN(CC)C(=O)Cn1ccc2cc(NC(C)=O)ccc21 | -3.27% |
| CCC(=O)Nc1ccc2c(ccn2CC(=O)N(CC)CC)c1 | -3.74% |
| CCN(CC)C(=O)Cn1ccc2cc(NC(=O)COC)ccc21 | -2.77% |
| Cc1ccc(C(=O)N(C)Cc2ccc3c(c2)OCO3)c(=O)[nH]1 | -4.29% |
| COC1CCN(C(=O)Cc2csc(-c3ccccc3)n2)CC1 | -5.23% |
| CC(C)(C)n1cc(C(=O)N2CCN(Cc3cccnc3)CC2)cn1 | -7.69% |
| COc1c(CNC(c2ccccc2F)c2nccn2C)c(C)nn1C (configuration not stated) | -4.51% |
| CC(C)(C)n1cc(C(=O)N2CCN(Cc3ccncc3)CC2)cn1 | -2.1% |
| Cc1nc2ccccc2c(=O)n1CCCC(=O)N1CCNC(=O)CC1 | 2.21% |
| Cc1nn(C)c(N(C)C)c1CNC1CCOc2c(Cl)cccc21 (configuration not stated) | 23.4% |
| CC(C)(C)n1cc(C(=O)N2CCN(Cc3ccco3)CC2)cn1 | -8.01% |
| CC(Cn1ccnc1)NC(=O)N1CCN(Cc2ccncc2)CC1 (configuration not stated) | -2.15% |
| CN1CCCC1CNC(=O)CCOc1ccc(Br)cc1 (configuration not stated) | 2.76% |
| CN(CC(=O)N1CCCC1)C(=O)Cc1csc(-c2ncccn2)n1 | -1.25% |
| O=C(Nc1cnn(CCN2CCOCC2)c1)c1ccccc1Cl | 0.235% |
| CCN(CC)C(=O)Cn1ccc2cc(NC(=O)NC3CC3)ccc21 | -3.42% |
| O=C(CCc1ccc(-c2ccccc2)[nH]1)N1CCCC(n2ccnc2)C1 (configuration not stated) | -1.63% |
| N#Cc1cccnc1N1CCC(C2CCCCCN2C(N)=O)CC1 (configuration not stated) | -3.78% |
| CNc1nc(CNC(=O)Nc2cccc(Cl)c2Cl)cs1 | -1.34% |
| CCN(CC)C(=O)Cn1ccc2cc(NC(=O)C3CCCCC3)ccc21 | 14.5% |
| CC(Cn1ccnc1)NC(=O)N1CCN(Cc2ccco2)CC1 (configuration not stated) | 0.365% |
| CN1CCCC1CNC(=O)CCCOc1ccc(Br)cc1 (configuration not stated) | -3.72% |
| Cc1cc(NC(=O)CN2CCn3c(nnc3C(C)C)C2)n(C)n1 | 34.7% |
| Cc1cnn(CCNCc2csc(-c3ccccc3)n2)c1 | 15.6% |

| SMILES | cytotoxicity at 70.5 h |
| --- | --- |
| Cc1nc(C2CCCN2CCCS(N)(=O)=O)no1 (configuration not stated) | 17% |
| CC(C(=O)N1CCCN(Cc2ccc(C#N)cc2)CC1)n1cncn1 (configuration not stated) | -1.82% |
| CCOC(=O)CN(C)C1CCc2ccccc21 (configuration not stated) | 26.7% |
| CCOCC(O)CN1CCN(C(=O)Cc2cccc(C)c2)CC1 (configuration not stated) | -4.31% |
| CCn1c(CN2CCN(CCOC)CC2)nc2c(F)cccc21 | 2.86% |
| CC(O)CNC(=O)NCc1ccc(N2CCNC(=O)C2)cc1 (configuration not stated) | 2.26% |
| Cc1cc(C)n(CC2CN(CC(=O)Nc3nncs3)CCO2)n1 (configuration not stated) | 0.137% |
| Cc1cc(C[S+]([O-])CC(=O)NCC(C)C)no1 (configuration not stated) | -1.65% |
| CN1CCN(C2CCN(CCOc3ccc(F)cc3)CC2)C1=O | 18.4% |
| COc1cn(-c2ccccc2)nc1C(=O)NCCCN1CCCC(C)C1 (configuration not stated) | -11.2% |
| CC(C)OCCN1CCC(N2CCN(C)C2=O)CC1 | -2.99% |
| Cc1cnn(CC2CN(Cc3cccc(OCC(N)=O)c3)CCO2)c1 (configuration not stated) | -5.97% |
| CCc1csc(C2CCCN(C(=O)c3c[nH]c(C)n3)C2)n1 (configuration not stated) | -12% |
| CCc1nc(C2CCCN2CC(=O)Nc2c(C)n[nH]c2C)no1 (configuration not stated) | 5.42% |
| Cc1nc(C)n(CC2CCCCN2Cc2nnc(C3CC3)o2)n1 (configuration not stated) | 0.151% |
| COCCN1CCC(NCc2cccc(F)c2)C1 (configuration not stated) | 26.3% |
| CC(C)c1nn(C)c(N(C)C)c1CNCC(O)c1ccccc1F (configuration not stated) | 17.9% |
| O=C(NCC1CCOC1)c1csc(-c2cccc(Cl)c2)n1 (configuration not stated) | 1.75% |
| O=c1[nH]c(CN(Cc2ccco2)C2CCCC2)nc2ccccc12 | 5.19% |
| CCOc1ccc(Cl)c(C(=O)N2CCN(C(=O)c3ccoc3C)CC2)n1 | -1.97% |
| Cn1ncc2c(=O)[nH]c(CN(Cc3ccco3)C3CCCC3)nc21 | -0.279% |
| CCOc1ccc(Cl)c(C(=O)N2CCN(c3cnccn3)CC2)n1 | 38.9% |
| Cn1cc(CCC(=O)N2CCN(Cc3ccncc3)CC2)cn1 | 2.28% |
| Cc1ccc(C(O)CNCc2c(C(C)C)nn(C)c2N(C)C)cc1 (configuration not stated) | 0.581% |

| SMILES | cytotoxicity at 70.5 h |
| --- | --- |
| CNC(=O)c1ccc(C(=O)N2CCCC(n3cc(C)cn3)C2)cn1 (configuration not stated) | 40.9% |
| Cc1cnn(C2CCCN(C(=O)c3ccc(N(C)C)nn3)C2)c1 (configuration not stated) | -10.7% |
| CC(C)Cc1cc(NC(=O)c2ccc[nH]2)n(C)n1 | -11.1% |
| COC(=O)c1cccn1C1CCN(C(=O)c2cn[nH]c2C)CC1 | -1.46% |
| CCn1cnnc1C1CCN(C(=O)c2ccccc2OC)CC1 | -8.77% |
| CN(c1cccnn1)C1CCN(C(=O)c2ccc3c(c2)COC3)CC1 | -13.7% |
| c1ccc(CCN2CCN(c3ccc4nncn4n3)CC2)nc1 | -6.96% |
| O=C(c1ccc2c(c1)COC2)N1CCC(Nc2cccnn2)CC1 | -1.47% |
| CC(NC(=O)CNCCn1cccn1)c1ccc2c(c1)CCCC2 (configuration not stated) | -4.4% |
| CCc1nccn1C1CCCN(C(=O)c2ccc3[nH]c(=O)[nH]c3c2)C1 (configuration not stated) | 29% |
| Cc1oc(C(=O)O)cc1S(=O)(=O)Nc1cc(Cl)ccc1F | -7.55% |
| Cc1cccc(NS(=O)(=O)c2cc(C(=O)O)oc2C)c1Cl | 1.03% |
| O=C(c1ccc2c(c1)COC2)N1CCC(Nc2ccccc2)CC1 | 1.02% |
| CCn1cnnc1CNC(=O)N1CCN(c2cccs2)CC1 | 25.1% |
| COc1cccc(C(=O)Nc2cc(CC(C)C)nn2C)c1 | 3.59% |
| FC(F)(F)COCCN1CCN(c2ccc3nncn3n2)CC1 | 1.24% |
| COCCN1CCC(NCc2ccc(C#N)cc2)C1 (configuration not stated) | 34.1% |
| CCc1noc(CNc2ccc(C(=O)N3CCCC(C)C3)cc2C)n1 (configuration not stated) | -10.5% |
| NC(=O)c1cc(C2CCCN(C(=O)CCc3cscn3)C2)n[nH]1 (configuration not stated) | -11.7% |
| O=C1NCCN1C1CCN(Cc2nc(-c3ccoc3)no2)CC1 | 7.71% |
| COc1c(C)cnc(CN2CCC(N(C)C(C)C(N)=O)CC2)c1C (configuration not stated) | -2.64% |
| CCC(=O)N(C)C1CCN(Cc2ncc(C)c(OC)c2C)CC1 | -17.3% |
| Cc1nn(C)c(C)c1C1COCCN1C(=O)c1n[nH]c2ccccc12 (configuration not stated) | -10.8% |
| CN(Cc1ccsc1)C(=O)c1cccc(F)c1 | -9.63% |

| SMILES | cytotoxicity at 70.5 h |
| --- | --- |
| CC(C)c1nnc(CN2CCCC2Cn2cncn2)o1 (configuration not stated) | -11.1% |
| O=C(c1cccn1Cc1cccs1)N1CCN(C(=O)C2CC2)CC1 | -20.1% |
| c1cnnc(NCC2CN(Cc3cccc4c3OCCO4)CCO2)c1 (configuration not stated) | -20.6% |
| O=C(CS(=O)(=O)c1ccccc1Cl)NC1CCCCNC1=O (configuration not stated) | -25.9% |
| CC(C)N(C)S(=O)(=O)N(C)Cc1ccc2c(c1)OCO2 | 20.7% |
| CC(Cn1cccn1)NC(=O)Nc1nccs1 (configuration not stated) | -21.9% |
| CC(NC(=O)NCc1ccoc1)c1ccc2c(c1)CCC(=O)N2 (configuration not stated) | 14.8% |
| CC(C)CN1CCC(C(=O)Nc2cc(C(F)(F)F)c[nH]c2=O)CC1 | -6.4% |
| CCOCCCn1c(NC(=O)c2scnc2C)nc2ccccc21 | 30.8% |
| CC(C)CN1CCN(C(=O)Nc2cc(C(F)(F)F)c[nH]c2=O)CC1 | -17.9% |
| CCOCCCn1c(NC(=O)c2cnn(C)c2)nc2ccccc21 | -13.3% |
| CCOCCCn1c(NC(=O)c2ccc(C)nc2)nc2ccccc21 | -5.03% |
| O=C(c1cccn1Cc1cccs1)N1CCN(C2CC2)CC1 | -10.4% |
| CCn1c(C(=O)N2CCN(C(=O)COC)CC2)cc2ccccc21 | 26.3% |
| COC(=O)C(NC(=O)c1ccco1)c1cc(F)ccc1F (configuration not stated) | -15.6% |
| CCOCC(O)CN1CCN(C(=O)c2cccnc2OC)CC1 (configuration not stated) | -18% |
| CNc1cc2c(nn1)CCN(C(=O)c1cccc3c1OCO3)C2 | -16.7% |
| Cc1nn(C)c(C)c1C1COCCN1C(=O)c1ccccc1 (configuration not stated) | 22.5% |
| COc1ccccc1CC(=O)NS(=O)(=O)c1ccc(C(N)=O)cc1 | -12.7% |
| CC(CNc1cncc(-n2cccn2)n1)N(C)c1ccccc1 (configuration not stated) | 1.39% |
| Cc1nn(C)c(N(C)C)c1CNC1CCc2c(Cl)cccc21 (configuration not stated) | -1.83% |
